{"source": "patent US11261230B2", "about": "“Synthetic somatostatin receptor ligands” (TEL HASHOMER MEDICAL RESEARCH INFRASTRUCTURE AND SERVICES …, priority 2014, dated 2022)", "key": {"[1]": {"tested_on": "SSTR1-SSTR5", "details": "background statement; cited from earlier work"}, "[2]": {"molecular_target": "T1, human SSTR5 (Homo sapiens, UniProt P35346)", "T1 construct": "expressed in transfected cells; host or cells: HEK-293, transient transfection, pcDNA 3.1", "T1 sequence (P35346 whole entry)": "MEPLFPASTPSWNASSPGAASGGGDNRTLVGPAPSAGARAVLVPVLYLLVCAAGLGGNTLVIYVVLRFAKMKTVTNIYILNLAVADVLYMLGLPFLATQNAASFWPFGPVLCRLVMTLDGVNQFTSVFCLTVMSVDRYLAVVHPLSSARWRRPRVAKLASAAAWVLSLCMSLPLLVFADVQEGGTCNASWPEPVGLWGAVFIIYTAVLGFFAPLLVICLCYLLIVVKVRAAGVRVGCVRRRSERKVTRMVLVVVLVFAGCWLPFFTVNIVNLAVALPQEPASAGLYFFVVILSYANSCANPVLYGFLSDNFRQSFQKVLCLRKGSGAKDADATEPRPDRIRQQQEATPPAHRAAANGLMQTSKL", "experiment": "Binding to transfected HEK cells expressing a single SSTRx subtype, FACS and fluorescence microscopy", "method": "(§1) The affinity of compounds 1-16 to each of the five SSTRx was tested using an in vitro model of transfected cell lines (HEK—human embryonic kidney), each expressing a single human SSTRx subtype. Biological activity assessment of the compounds to define a specific affinity to each subtype was performed by FACS and fluorescence imaging methods.\n(§2) Human SSTRx were expressed in the cells by transient transfection. Each SSTR was expressed separately, creating five different cell lines using human gene transcript.\n(§3) The transfection process is illustrated in FIG. 1. The transient transfection process was carried out before each experiment. Briefly, HEK cells were cultured in standard cell growth conditions. For testing, the cells were transferred into 96-well plates. The tested compounds were dissolved in DMSO and then diluted in a buffer solution to a final DMSO concentration of 5% as a composition according to the teachings herein. Various amounts of the thus-prepared compositions were added to the cells in medium in the 96-well plates and allowed to incubate for between 1 and 24 hours. Binding was determined using fluorescent microscopy and FACS.\n(§4) Qualitative assessment of binding efficiency was done by visual inspection and digital photography using an inverted fluorescent microscope. Quantitative assessment was done using FACS.\n(§5) HEK-293 cells (human embryonic kidney) were grown in Dulbecco's modified Eagle's medium (DMEM) supplemented with 4 mM glutamine, 10% fetal bovine serum (FBS) and 100 units/ml penicillin/streptomycin at 37° C./5% carbon dioxide. One day prior to transfection, the cells were trypsinized, counted and plated at a density of 3×10^5 per 35 mm diameter dish. Until 70% confluency, cells were transiently transfected with the pcDNA 3.1 vector bearing the coding region for the human SSTR human somatostatin receptor subtypes SSTR1-SSTR5. Transfections were carried out with JetPei transfection reagent (Polyplus-transfection, NY, USA) according to the manufacturer's recommendation. Briefly, 2 micrograms of plasmid DNA and 6 microliter of JetPei transfection reagent were used for each transfection. Each of the components were resuspended in 100 microliter of 150 mM NaCl, mixed and incubated for 25 minutes at room temperature and after incubation added to cells.\n(§6) Cells were then seeded in a 96-well flat-bottom microplate (Costar, Corning, N.Y.) at a concentration of 5×10^4 cells/well. Twelve hours later, the supernatant was removed and replaced with fresh DMEM containing various (in the nM range) concentrations of tested compounds 1-16. The cells were incubated for additional time intervals ranging from 0.5-24 hr. At the end of the incubation period, supernatant was discarded and the cells were washed twice with cold PBS. The plates were examined using IX81 inverted microscope (Olympus, Japan) equipped with […] digital camera. Additionally, a FACS assay was used for quantitative analysis.\n(§7) Quantitative assessment of binding affinity of Compounds 1-16 was performed by FACS in the transfected HEK cell model.\n(§8) Quantitatively, specific binding affinity was assessed as the percentage of double stained [(GR=green and red indicating transfection)/(R is total red) less (G is green indicating unspecific binding)]: specific binding affinity=[GR/R−G]"}, "[3]": {"molecular_target": "T2, human SSTR4 (Homo sapiens, UniProt P31391)", "T2 construct": "expressed in transfected cells; host or cells: HEK-293, transient transfection, pcDNA 3.1", "T2 sequence (P31391 whole entry)": "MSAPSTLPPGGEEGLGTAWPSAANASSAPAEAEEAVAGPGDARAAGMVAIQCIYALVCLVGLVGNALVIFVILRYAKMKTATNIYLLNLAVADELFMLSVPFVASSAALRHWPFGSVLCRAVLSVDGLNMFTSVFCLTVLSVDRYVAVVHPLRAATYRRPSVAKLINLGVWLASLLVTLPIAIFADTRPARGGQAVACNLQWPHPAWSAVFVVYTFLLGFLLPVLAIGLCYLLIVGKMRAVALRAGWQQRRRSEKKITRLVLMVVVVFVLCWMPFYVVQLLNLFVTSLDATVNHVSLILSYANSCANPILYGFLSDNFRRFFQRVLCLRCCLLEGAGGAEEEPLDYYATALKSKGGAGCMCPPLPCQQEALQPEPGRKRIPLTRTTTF", "experiment": "Binding to transfected HEK cells expressing a single SSTRx subtype, FACS", "method": "as §1, §2, §3, §4, §5, §6, §7, §8"}, "[4]": {"tested_on": "BON1 tumor", "experiment": "In vivo bio-distribution by fluorescence imaging in mice bearing BON1 tumor", "set-up": "species or system nude mice", "details": "10 mg/kg IV", "method": "Pharmacokinetics and bio-distribution of some of the compounds was studied in mouse xenograft models for human cancer. Four pharmaceutical compositions according to the teachings herein, each comprising a single compound according to the teachings herein, were administered intravenously (IV) into lateral tail vein of nude mice bearing BON1 or H116 tumors. Animals were sacrificed at 1, 3, 6 and 24 hours after injection and tumor and normal tissues were excised. Tissue bio-distribution of the compounds were studied using fluorescence imaging techniques.\nExperiments were started 7-10 days after the injection, when the tumor diameter was approximately 5-10 mm. […]\nWhole-body fluorescence imaging, low-magnification fluorescence microscopy and cellular level fluorescence microscopy methods were used to study tissue biodistribution of the compounds. For these purposes, SZX-12 fluorescence microscope (Olympus, Japan), IX81 inverted fluorescence microscope (Olympus, Japan) equipped with appropriate filter-cubes and digital color camera (DP71, Olympus) were used. Additionally, whole-body fluorescence imaging was performed by WB imaging system (Prizmatix, Israel). Quantitative spectrally-resolved fluorescence imaging was carried out using a spectral imaging (SI) system (SD300, Applied Spectral Imaging, Migdal Ha'Emek, Israel). […]"}, "[5]": {"tested_on": "PANC-1 tumors", "experiment": "In vivo biodistribution in PANC-1 xenograft mice, Maestro fluorescence imaging of harvested tissue", "details": "1 day after administration, tissues as named in the value", "procedure": "Five different pharmaceutical compositions were prepared, each by dissolving 1 mg of a different Somatostatin receptor ligand in 1 liter PBS.\nSolid human-derived tumors were induced in 15 nude mice by subcutaneous injection of a suspension containing ˜5□10^5 human cancer cells (PANC-1) into the flank area of the mice.\n2-3 weeks after the injection of the cancer cells, it was observed that the mice developed solid tumors with diameters of approximately 5-10 mm.\n0.3 ml of each one of the five pharmaceutical compositions were systemically administered to three of the fifteen xenograft mice by injection into the tail vein using a 30 G needle.\nThe fifteen mice were sacrificed and from the bodies tumors, pancreas, spleen, kidney and liver were harvested.\nThe fluorescence of the harvested tissue was determined using the Maestro™ in vivo fluorescence imaging system (Cambridge Research & Instrumentation, Inc., Woburn, Mass., USA)."}, "[6]": {"details": "FACS, transfected HEK, specific binding affinity = percentage double stained [GR/R−G], 0 = no binding detected"}, "[7]": {"details": "Table 2 normalized according to the highest binding affinity of that compound"}, "[8]": {"details": "Table 2 normalized to Compound 1 (=100)"}}, "note": "*1 amine or outer side, *2 acyl side, *3 side chain or, on linkers, in order; H or OH if unused. Where a SMILES comes first, the peptide text is derived from it. Bridges are numbered along the chain shown (N, C = ends). [ ]: non-standard residue; d: D form. The star is where a group is joined. FITC = O=C1OC2(c3ccc(O)cc3Oc3cc(O)ccc32)c2ccc(NC(=S)*)cc21; N(2-mercaptoethyl)Gly = O=C(CN(CCS[*:3])[*:1])[*:2]; GABA = NCCCC(=O)O"}
{"compound": "DPhe-Cys*-Phe-DTrp-Lys-Thr-Cys*-Throl [Octreotide]", "values": [{"measurement": "Affinity of binding to the SSTRx (in words)", "setting": "[1]", "value": "high-affinity binding to SSTR2, moderate affinity binding to SSTRR3 and SSTR5, and almost no affinity binding to SSTR1 and SSTR4"}]}
{"compound": "CC(=O)NCCCC[C@@H]1NC(=O)[C@@H](Cc2c[nH]c3ccccc23)NC(=O)[C@H](Cc2c[nH]c3ccccc23)NC(=O)[C@H](Cc2ccccc2)NC(=O)[C@@H](NC(=O)[C@@H](Cc2ccccc2)NC(=O)CCCNC(=S)Nc2ccc3c(c2)C(=O)OC32c3ccc(O)cc3Oc3cc(O)ccc32)CSSCCN(CC(N)=O)C(=O)[C@H](Cc2ccccc2)NC(=O)[C@H]([C@@H](C)O)NC1=O", "note": "[Compound 14, FITC-GABA-D-Phe-Cys-Phe-Trp-D-Trp-LysAc-Thr-Phe-GlyS2]", "values": [{"measurement": "Relative binding affinity SSTR5", "setting": "[2]; [6]", "value": 2}, {"measurement": "Adjusted binding affinity SSTR5", "setting": "[2]; [7]", "value": 0.67}, {"measurement": "Binding affinity to SSTR5 relative to Compound 1", "setting": "[2]; [8]", "value": 7}, {"measurement": "Relative binding affinity SSTR4", "setting": "[3]; [6]", "value": 3}, {"measurement": "Adjusted binding affinity SSTR4", "setting": "[3]; [7]", "value": 1}, {"measurement": "Binding affinity to SSTR4 relative to Compound 1", "setting": "[3]; [8]", "value": 13}]}
{"compound": "C[C@@H](O)[C@@H]1NC(=O)[C@H](CCCCN)NC(=O)[C@@H](Cc2c[nH]c3ccccc23)NC(=O)[C@H](Cc2c[nH]c3ccccc23)NC(=O)[C@H](Cc2ccc(O)cc2)NC(=O)[C@@H](NC(=O)[C@@H](Cc2ccccc2)NC(=O)CCCNC(=S)Nc2ccc3c(c2)C(=O)OC32c3ccc(O)cc3Oc3cc(O)ccc32)CSSCCN(CC(N)=O)C(=O)[C@H](Cc2ccccc2)NC1=O", "note": "[Compound 4, FITC-GABA-D-Phe-Cys-Tyr-Trp-D-Trp-Lys-Thr-Phe-GlyS2] ({FITC-GABA}-[dF]CYW[dW]KTF[N(2-mercaptoethyl)Gly]-NH2; disulfide 2-9)", "values": [{"measurement": "Pattern of bio-distribution, order of fluorescence in tissue samples", "setting": "[4]; fluorescence microscopy, 24 hrs after administration", "value": "tumor>spleen>pancreas>kidney>liver"}]}
{"compound": "C[C@@H](O)[C@@H]1NC(=O)[C@H](CCCCN)NC(=O)[C@@H](Cc2c[nH]c3ccccc23)NC(=O)[C@H](Cc2c[nH]c3ccccc23)NC(=O)[C@H](Cc2ccccc2)NC(=O)[C@@H](NC(=O)[C@@H](Cc2ccccc2)NC(=O)CCCNC(=S)Nc2ccc3c(c2)C(=O)OC32c3ccc(O)cc3Oc3cc(O)ccc32)CSSCCN(CC(N)=O)C(=O)[C@H](Cc2ccccc2)NC1=O", "note": "[Compound 1, FITC-GABA-DPhe-Cys*-Phe-Trp-DTrp-Lys-Thr-Phe-GlyS2*-NH2, reference compound]", "values": [{"measurement": "Intensity in healthy tissue (in words)", "setting": "[5]", "value": "undetectable in liver tissue"}]}
{"compound": "C[C@@H](O)[C@@H]1NC(=O)[C@H](CCCCN)NC(=O)[C@@H](Cc2c[nH]c3ccccc23)NC(=O)[C@H](Cc2ccccc2)NC(=O)[C@@H](NC(=O)[C@H](CCCNC(=N)N)NC(=O)[C@@H](Cc2ccccc2)NC(=O)CCCNC(=S)Nc2ccc3c(c2)C(=O)OC32c3ccc(O)cc3Oc3cc(O)ccc32)CSSCCN(CC(N)=O)C(=O)[C@H](Cc2ccccc2)NC1=O", "note": "[Compound 2, FITC-GABA-D-Phe-Arg-Cys-Phe-D-Trp-Lys-Thr-Phe-GlyS2] ({FITC-GABA}-[dF]RCF[dW]KTF[N(2-mercaptoethyl)Gly]-NH2; disulfide 3-9)", "values": [{"measurement": "Intensity in healthy tissue (in words)", "setting": "[5]", "value": "undetectable in spleen, kidney and liver tissue"}]}
{"compound": "C[C@@H](O)[C@@H]1NC(=O)[C@H](CCCN)NC(=O)[C@@H](Cc2c[nH]c3ccccc23)NC(=O)[C@H](Cc2c[nH]c3ccccc23)NC(=O)[C@H](Cc2ccccc2)NC(=O)[C@@H](NC(=O)[C@@H](Cc2ccccc2)NC(=O)CCCNC(=S)Nc2ccc3c(c2)C(=O)OC32c3ccc(O)cc3Oc3cc(O)ccc32)CSSCCN(CC(N)=O)C(=O)[C@H](Cc2ccccc2)NC1=O", "note": "[Compound 3, FITC-GABA-D-Phe-Cys-Phe-Trp-D-Trp-Orn-Thr-Phe-GlyS2]", "values": [{"measurement": "Intensity in healthy tissue (in words)", "setting": "[5]", "value": "undetectable in spleen, kidney and liver tissue"}, {"measurement": "Time of maximal fluorescence signal in all tissues after administration", "setting": "[4]; spleen, pancreas and tumor, FIG. 10", "value": 6, "unit": "h"}]}
{"compound": "CC(C)[C@@H]1NC(=O)[C@H](CCCCN)NC(=O)[C@@H](Cc2c[nH]c3ccccc23)NC(=O)[C@H](Cc2ccc(O)cc2)NC(=O)[C@@H](NC(=O)[C@H](N)Cc2ccc3ccccc3c2)CSSC[C@@H](C(=O)N[C@H](C(N)=O)[C@@H](C)O)NC1=O", "note": "[Lanreotide, Napht-Cys*-Tyr-Trp-Lys-Val-Cys*-Thr]", "values": [{"measurement": "Affinity of binding to the SSTRx (in words)", "setting": "[1]", "value": "high-affinity binding to SSTR2, moderate affinity binding to SSTRR3 and SSTR5, and almost no affinity binding to SSTR1 and SSTR4"}]}
